PubChem BioAssay (NCI)
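Method: 48-hour compound exposure of cells in 96-well plates, five concentrations, linear interpolation of endpoints. TGI is the concentration that stops growth completely.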

Experiments:
Test in all cases: NCI anticancer screen, dose series, 48 h
[1] = tested on: RXF 393 renal
[2] = tested on: SN12C renal
[3] = tested on: SF-268 CNS
[4] = tested on: KM12 colon
[5] = tested on: OVCAR-8 ovarian
[6] = tested on: UACC-257 melanoma
[7] = tested on: HL-60(TB) leukemia
[8] = tested on: SK-OV-3 ovarian
[9] = tested on: MDA-MB-231 breast
[10] = tested on: SK-MEL-28 melanoma
[11] = tested on: SR leukemia
[12] = tested on: HOP-92 NSCLC
[13] = tested on: SF-295 CNS
[14] = tested on: NCI-H460 lung
[15] = tested on: HCC-2998 colon
[16] = tested on: MOLT-4 leukemia
[17] = tested on: SNB-19 CNS
[18] = tested on: TK-10 renal
[19] = tested on: MCF7 breast
[20] = tested on: T-47D breast

Measured: TGI

CCOC(O)C(F)(F)F (stereo not given)
> 100 µM: all assays above
